Columns and labels:
[1] = test system: UGT71G1; settings: previous studies; cited from earlier work
[2] = test system: UGT71G1; test: LC-MS/MS analysis of substrates and glycosylated products of the UGT71G1 reaction; assay type: biochemical, Medicago truncatula; settings: for validation as UGT71G1 substrate (glycosylated product detected): substrate 10 μM, UDP-glucose 50 μM, pH 7.4, 37° C., 2 hours 3HF, 4 hours SN-38, 24 hours BPA
Procedure: Liquid chromatography-coupled mass spectrometric analysis of substrates and products. The glycosylation reaction for plant UGT71G1 enzyme extracted from E. coli BL21(DE3) cells containing UGT71G1-pET28a was performed similar to the glucuronidation reaction as those published previously 17 with minor modification. Briefly, the enzyme UGT71G1 (final concentration 0.05-0.5 μg/ml) was mixed with UDP-glucose (50 μM) and substrate (final concentration 10 μM) in 50 mM potassium phosphate buffer (pH 7.4) to reach a final volume of 200 μL. This reaction mixture was incubated at 37° C. and at various time points for each substrate to obtain the highest product-to-substrate ratio: 2 hours for 3HF, 4 hours for SN-38, and 24 hours for BPA; reactions were ended with the addition of 200 μL methanol. The samples were centrifuged at 14000 rpm for 15 mins and supernatant was subjected to UPLC-MS/MS system for analysis after appropriate dilution with 50% MeOH solution.
LC-MS/MS analysis was performed with an EXIONLC™ UHPLC system coupled with API 5500 Q-Trap triple quadrupole mass spectrometer. A BEH C18 column (50×2.1 mm I.D., 1.7 μm, Waters, Milford, MA, USA) was used for liquid chromatography. For mobile phase, mobile phase A (MPA) was 0.1% formic acid in water and mobile phase B (MPB) was 100% acetonitrile; flow rate was 0.45 mL/min with a column temperature of 45° C. An amount of 10 μL sample was injected for each analysis and it was eluted with the following mobile phase profile: 0-0.5 min, 5-10% MPB, 0.5-1.5 min, 10-40% MPB, 1.5-4.0 min, 40-90% MPB, 4.0-4.4 min, 90% MPB, 4.4-4.6 min, 90-5% MPB, 4.6-5.0 min, 5% MPB. Gradient mobile phase for mycophenolic acid and metabolites: 0-1.0 min, 5-20% MPB, 1.0-1.5 min, 20% MPB, 1.5-4.0 min, 20-40% MPB, 4.0-5.0 min, 40-90% MPB, 5.0-5.5 min, 90-5% MPB, 5.5-6.0 min, 5% MPB.
To validate our results from the high-throughput fluorescent assay, a liquid chromatography-coupled tandem mass spectrometric (LC-MS/MS) method was used to monitor the reaction of UGT71G1 with 3-hydroxyflavone, bisphenol A, and SN-38.

[3] = test system: UGT71G1; test: High-throughput fluorescent assay for screening candidates of UGT glycosylation (UDP release, MicroMolar UDP assay kit); assay type: biochemical, Medicago truncatula; settings: 6 μg UGT71G1, UDP-glucose 50 μM, substrate candidate 0.8 to 160 μM, 37° C. 45 minutes, ex 485 nm / em 535 nm
Procedure: High-throughput fluorescent assay for screening candidates of UGT glycosylation. Characterization of UDP formation involved the MicroMolar UDP assay kit (ProFoldin). For each reaction, reagents used from this kit include 3 μL of 10× buffer, 0.3 μL of 100×MUD reagent 1, and 0.3 μL of 100×MUD reagent 2. […] Each sample was then mixed with 30 μL of 1× fluorescence dye from the MICROMOLAR UDP assay kit and fluorescence was measured immediately with a BIOTEK SYNERGY H1 M florescence microplate reader at excitation 485 nm and emission 535 nm.
For a high-through method to robustly detect UGT activities with different glycosyl acceptor, it is necessary to target a change that is independent from the acceptor molecule. UDP-glycosyltransferases take UDP-glucose as a co-substrate; while the glucosyl moiety is transferred to the acceptor molecule, UDP is released as a by-product (FIG. 1A). Thus, UGT activities can be detected by the rise in UDP level in the reaction mixture. In our method to monitor an increase in UDP concentration, the UGT71G1 enzymatic reaction was coupled to the UDP assay kit, in which the release of UDP leads to an increase in fluorescence intensity.

[4] = patients that administer irinotecan; SN-38 excreted into the intestines via bile; cited from earlier work

Compound: O=c1c(-c2ccc(O)cc2)coc2cc(O)cc(O)c12 [Sample 88, Genistein]
- glycosylation of hydroxyl groups by UGT71G1 [1]: glycosylates multiple hydroxyl groups

Compound: CC(C)(c1ccc(O)cc1)c1ccc(O)cc1 [Sample 135, Bisphenol A]
- products formed in the reaction catalyzed by UGT71G1 ([2]; BPA 10 μM, 24 hours, major monoglycosylated, minor diglycosylated): two products
- validation as UGT71G1 substrate (glycosylated product detected) [2]: validated

Compound: O=c1c(O)c(-c2ccccc2)oc2ccccc12 [Sample 26, 3-Hydroxyflavone]
- validation as UGT71G1 substrate (glycosylated product detected) [2]: validated
- fold increase in fluorescent signal / fluorescence intensity with UGT71G1, comparing to the condition without UGT71G1 [3]: 30 fold

Compound: CCc1c2c(nc3ccc(O)cc13)-c1cc3c(c(=O)n1C2)COC(=O)[C@]3(O)CC [Sample 58, 7-Ethyl-10-hydroxycamptothecin]
- validation as UGT71G1 substrate (glycosylated product detected) [2]: validated

Compound: CCc1c2c(nc3ccc(OC(=O)N4CCC(N5CCCCC5)CC4)cc13)-c1cc3c(c(=O)n1C2)COC(=O)[C@]3(O)CC [irinotecan]
- patients experiencing diarrhea [4]: 25%

Compound: COc1ccc(-c2coc3cc(O)cc(O)c3c2=O)cc1 [Sample 130, Biochanin A]
- glycosylation of hydroxyl groups by UGT71G1 [1]: glycosylates multiple hydroxyl groups

From patent publication US20250263774A1, “DISCOVERING NEW XENOBIOTIC SUBSTRATES OF AN UDP-GLYCOSYLTRANSFERASE WITH A HIGH-THROUGHPUT METHOD” (priority 2024, published 2025)
